Data on five molecules can be found in US5057520A, “7-(peptidylpyrolidinyl)naphthyridine antibacterial compounds” (Abbott Laboratories, priority 1989, dated 1991).

Converted amounts (≈) assume the structure as drawn. Where a name gives a salt, the structure may show the parent alone. Read-outs that look alike come from different tables or passages of the source.

One may read the MIC as the least concentration at which growth counts as inhibited. A higher MIC goes with weaker potency.

A short description of series [1]: Plasma level in dog after oral dose. Conditions: 10 mg equivalent/kg oral dose, HPLC. An excerpt: The plasma samples were collected and determined by the HPLC analysis.
Series [2] in a line: Solubility in water and at pH 7.4. Conditions: for Water Solubility: the sign > refers to an approximate value and the solubility may be within 10% higher.
The next series relates to PSEUDOMONAS CEPACIA 296I. The series is described as follows: In vitro MIC, agar dilution (BHIA). It is filed as cell-based. (In agar dilution, organisms are placed on agar that contains the substance at set levels.)
Series [3] relates to STREPTOCOCCUS PYOGENES 2548 INDUC. The series is described as follows: In vitro MIC, agar dilution (BHIA). In kind it is cell-based.
In the next series the test system is E. Coli Juhl. Briefly: Acute mouse protection test. The settings on record: mice infected i.p. with E. Coli JUHL, observed 7 days; for SC (ED50): SC dosing at 1 and 5 hours post-infection; for Oral (ED50): oral dosing at 1 and 5 hours post-infection. It is filed as in vivo.
In series [4] the test system is MICROCOCCUS LUTEUS ATCC 4698. Briefly: In vitro MIC, agar dilution (BHIA). In kind it is cell-based.
Another series deals with Stap. Aureus NCTC 10649. Briefly: Acute mouse protection test. In kind it is in vivo. The settings on record: mice infected i.p. with Stap. Aureus NCTC 10649, observed 7 days; for SC (ED50): SC dosing at 1 and 5 hours post-infection; for Oral (ED50): oral dosing at 1 and 5 hours post-infection.
Series [5] concerns MICROCOCCUS LUTEUS ATCC 9341. Briefly: In vitro MIC, agar dilution (BHIA). It is filed as cell-based.
Series [6] concerns PSEUDOMONAS AERUGINOSA K799/WT. The series is described as follows: In vitro MIC, agar dilution (BHIA). In kind it is cell-based.
The test system of series [7] is STREPTOCOCCUS AGALACTIAE CMX 508. The series is described as follows: In vitro MIC, agar dilution (BHIA). It is filed as cell-based.
In series [8] the test system is STREPTOCOCCUS PYOGENES 930 CONST. Briefly: In vitro MIC, agar dilution (BHIA). It is filed as cell-based.
The test system of series [9] is KLEBSIELLA PNEUMONIAE ATCC 8045. The series is described as follows: In vitro MIC, agar dilution (BHIA). In kind it is cell-based.
For the next series, the system named is ACINETOBACTER SP CMX 669. The series is described as follows: In vitro MIC, agar dilution (BHIA). In kind it is cell-based.
Another series deals with ESCHERICHIA COLI SS. The series is described as follows: In vitro MIC, agar dilution (BHIA). In kind it is cell-based. An excerpt:
(§1) The MIC results are in ug/ml.

A further series concerns ESCHERICHIA COLI H560. Briefly: In vitro MIC, agar dilution (BHIA). It is filed as cell-based.
Excerpt: as §1

For series [10], the system named is STREPTOCOCCUS PYOGENES EES61. The series is described as follows: In vitro MIC, agar dilution (BHIA). In kind it is cell-based.
Series [11] concerns STREPTOCOCCUS BOVIS A5169. Briefly: In vitro MIC, agar dilution (BHIA). It is filed as cell-based.
For series [12], the system named is PROVIDENCIA STUARTII CMX 640. The series is described as follows: In vitro MIC, agar dilution (BHIA). It is filed as cell-based.
A further series deals with P. Aeruginosa A5007. The series is described as follows: Acute mouse protection test. It is filed as in vivo. Conditions: mice infected i.p. with P. Aeruginosa A5007, observed 7 days; for SC (ED50): SC dosing at 1 and 5 hours post-infection; for Oral (ED50): oral dosing at 1 and 5 hours post-infection.
For series [13], the system named is PSEUDOMONAS AERUGINOSA K799/61. The series is described as follows: In vitro MIC, agar dilution (BHIA). In kind it is cell-based.
For series [14], the system named is PSEUDOMONAS AERUGINOSA A5007. Briefly: In vitro MIC, agar dilution (BHIA). In kind it is cell-based.
The test system of series [15] is PSEUDOMONAS AERUGINOSA BMH10. The series is described as follows: In vitro MIC, agar dilution (BHIA). In kind it is cell-based.
Series [16] can be described thus: Conversion of prodrug to parent drug in whole blood at 37° C. It is filed as in vitro ADME, Rat. The method, then:
(§2) An aqueous solution of prodrug (Z) is spiked into fresh whole blood containing sodium heparin as an anticoagulant. The sample is mixed gently by inversion and placed in a 37° waterbath. At selected time intervals an 0.5 ml aliquot of blood is removed and placed in a chilled 1.5 ml centrifuge tube (ice temperature). Samples are centrifuges at 13,000 rpm for two minutes to separate plasma. An 0.2 ml aliquot of the plasma sample is combined with 0.2 ml internal standard (7-(4-amino-2-methyl-1-pyrrolidinyl)-1-(2,4-difluorophenyl)-6-fluoro-1,4-d ihydro-4-oxo-1,8-naphthyridine-3-carboxylic acid in 0.2M sodium phosphate pH 7.2 buffer) and 6 mls CH2 Cl2 :EtoH (9:1 by volume). Samples are capped and shaken gently for 10 minutes. Samples are centrifuges at 2500 rpm for 10 minutes (4° C.). The aqueous layer is aspirated to waste and the organic layer is transferred to a conical centrifuge tube and evaporated to dryness with a stream of dry air and low heat ([…]). Samples are reconstituted with 0.2 ml mobile phase followed by vortexing. Samples are centrifuges at 2500 rpm for 10 minutes to separate precipitate. The supernatant is transferred to a WISP vial with plastic insert for HPLC analysis.

Experiment in series [17]: as above
It is filed as in vitro ADME, Dog. The procedure: as §2

The subject of series [18] is ENTEROBACTER AEROGENES ATCC 13048. The series is described as follows: In vitro MIC, agar dilution (BHIA). In kind it is cell-based.
Series [19] deals with ENTEROCOCCUS FAECIUM ATCC 8043. Briefly: In vitro MIC, agar dilution (BHIA). In kind it is cell-based.
The nature of series [20]: Conversion of prodrug to parent drug in whole blood at 37° C. It is filed as in vitro ADME, Human. The method, then: as §2
For another series, the system named is ESCHERICHIA COLI JUHL. Briefly: In vitro MIC, agar dilution (BHIA). It is filed as cell-based.
The mark [21] stands for this setting: STREPTOCOCCUS AGALACTIAE CMX 508.

For the molecule `CCC[C@H](NC(=O)CN)C(=O)NC1CCN(c2nc3c(cc2F)c(=O)c(C(=O)O)cn3-c2ccc(F)cc2F)C1` (some centres unmarked) [Example 52], the “AUC (0-32h)” value in series [1] came out at 13.9. In series [2], the “Solubility pH 7.4” value is 0.08 mg/ml and the “Water Solubility” value is 6.89 mg/mL.

Take `NCC(=O)N[C@@H](Cc1ccccc1)C(=O)NC1CCN(c2nc3c(cc2F)c(=O)c(C(=O)O)cn3-c2ccc(F)cc2F)C1` (stereo partly drawn) [Example 1b, 7-[(3-Gly-L-Phe-amino)-1-pyrrolidinyl]-1-(2,4-difluorophenyl)-6-fluoro-1,4-dihydro-4-oxo-1,8-naphthyridine-3-carb oxylic acid hydrochloride]: the MIC was 50 µg/mL with PSEUDOMONAS CEPACIA 296I; “.78 µg/mL” in series [3]; “.78 µg/mL” in series [4]; 6.25 µg/mL in series [5]; 25 µg/mL in series [6]; 1.56 µg/mL in series [7] (STR[…] 508). In addition, the MIC result in series [8] was “.78 µg/mL”; in series [9], 12.5 µg/mL; in the series with ACINETOBACTER SP CMX 669, 12.5 µg/mL; in the series with ESCHERICHIA COLI SS, “.2 µg/mL”; with ESCHERICHIA COLI H560, 1.56 µg/mL; in series [10] (STR[…] EES61), 1.56 µg/mL. Also, the MIC in [11] (STR[…] A5169) was determined as 1.56 µg/mL; in series [12] it was 100 µg/mL; in [13], 12.5 µg/mL; in series [14], 25 µg/mL; in series [15], 25 µg/mL. The figures for the “SC (ED50)” value with E. Coli Juhl, with Stap. Aureus NCTC 10649 and in the series on P. Aeruginosa A5007 were 0.6 mg/kg/day, 0.5 mg/kg/day and 8.0 mg/kg/day, respectively. For the same molecule, the figures for the “Oral (ED50)” value in the series on E. Coli Juhl, in the series on Stap. Aureus NCTC 10649 and in the series on P. Aeruginosa A5007 were 1.8 mg/kg/day, 0.7 mg/kg/day and 27.3 mg/kg/day, respectively.

On to `NC(Cc1ccccc1)C(=O)NC1CCN(c2nc3c(cc2F)c(=O)c(C(=O)O)cn3-c2ccc(F)cc2F)C1` (centres unmarked) [Example 5], for which the “Half Life Rat” value in [16] worked out at 4.5 m. Besides, the MIC in the series on PSEUDOMONAS CEPACIA 296I was greater than 100 µg/mL; in series [3], “.78 µg/mL”; in [4] it was 12.5 µg/mL (≈ 22.7 µM); in series [5], 25 µg/mL (≈ 45.3 µM); in series [6] it was 25 µg/mL (≈ 45.3 µM); in series [7] (setting [21]), 3.1 µg/mL (≈ 5.62 µM). Besides, the MIC was 1.56 µg/mL (≈ 2.83 µM) in series [9]; 12.5 µg/mL (≈ 22.7 µM) in the series on ACINETOBACTER SP CMX 669; “.1 µg/mL” in the series on ESCHERICHIA COLI SS; 3.1 µg/mL (≈ 5.62 µM) against ESCHERICHIA COLI H560; 12.5 µg/mL (≈ 22.7 µM) in [18]; 3.1 µg/mL (≈ 5.62 µM) in [19]. Besides, the MIC in [10] (STREPTOCOCCUS PYOGENES EES61) was 3.1 µg/mL (≈ 5.62 µM); in series [12] it was greater than 100 µg/mL; in [13], 1.56 µg/mL (≈ 2.83 µM); in [14], 50 µg/mL (≈ 90.7 µM); in series [15] it was 25 µg/mL (≈ 45.3 µM); against ESCHERICHIA COLI JUHL, 3.1 µg/mL (≈ 5.62 µM). Besides, the figures for the “SC (ED50)” value in the series on E. Coli Juhl, with Stap. Aureus NCTC 10649 and in the series with P. Aeruginosa A5007 were 0.7 mg/kg/day, 1.0 mg/kg/day and 7.5 mg/kg/day, respectively. Moreover, the “Oral (ED50)” value in the series with E. Coli Juhl was 3.5 mg/kg/day; in the series with Stap. Aureus NCTC 10649, 3.6 mg/kg/day; in the series with P. Aeruginosa A5007, 18.6 mg/kg/day. In series [17], the “Half Life Dog” value came out at 8.3 m. The “Half Life Human” value in series [20] amounted to 10.7 m.

As to “7-[3-Norvaline-amino-1-pyrrolidinyl]-1-(2,4-difluorophenyl)-6-fluoro-1,4-di hydro-4-oxo-1,8-naphthyridine-3-carboxylic acid hydrochloride [Example 2b]”, the “Half Life Rat” value in [16] came out at 40.7 s. In addition, the MIC with PSEUDOMONAS CEPACIA 296I is 50 µg/mL; in series [3], “.39 µg/mL”; in series [4], 25 µg/mL; in series [5], 25 µg/mL; in series [6] it was 6.2 µg/mL; in series [7] (setting [21]), 1.56 µg/mL. The MIC result in series [8] was “.78 µg/mL”; in series [9], “.39 µg/mL”; in the series with ESCHERICHIA COLI H560, “.78 µg/mL”; in [19], “.78 µg/mL”; in [10] (STREPTOCOCCUS PYOGENES EES61), 1.56 µg/mL; in series [11] (STREPTOCOCCUS BOVIS A5169) it was 1.56 µg/mL. The MIC result was “.39 µg/mL” in [13], 12.5 µg/mL in series [14], 6.2 µg/mL in [15] and “.78 µg/mL” against ESCHERICHIA COLI JUHL. In addition, the “Half Life Human” value in series [20] is 75.5 s.

For `CCC[C@H](NC(=O)[C@H](C)N)C(=O)NC1CCN(c2nc3c(cc2F)c(=O)c(C(=O)O)cn3-c2ccc(F)cc2F)C1` (some centres unmarked) [Example 55b, 7-(3-Ala-Nval-amino-1-pyrrolidinyl)-6-fluoro-1-(2,4-difluorophenyl)-1,4-di hydro-4-oxo-1,8-naphthyridine-3-carboxylic acid], the “Half Life Rat” value in series [16] (conversion to parent drug in rat whole blood at 37° C., seconds) is given as 33.2 s. In addition, the “AUC (0-32h)” value in series [1] amounted to 15.4. In addition, in series [2], the “Solubility pH 7.4” value is 1.03 mg/ml and the “Water Solubility” value was determined as 26 mg/mL. The “Half Life Dog” value in series [17] (conversion to parent drug in dog whole blood at 37° C., seconds) turned out to be 118.0 s. Besides, the “Half Life Human” value in series [20] (conversion to parent drug in human whole blood at 37° C., seconds) was 88.0 s.
